Key:
[1] = biological target: T1, ALK(G1202R) (Homo sapiens, UniProt Q9UM73, G1202R); assay: In vitro kinase inhibitory activity assay, Experimental method 1 (ADP-Glo); assay type: biochemical; conditions: final ATP 50 µM, read-out: Kinase half maximal inhibitory concentration IC50 ALK^G1202R
T1 construct: purchased Carna
Description: (§1) The kinase inhibitory activity assays of the compounds against ALK, ALK^L1196M, ALK^G1202R, ALK^G1202R/L1196M, ROS1, and TRKB were conducted at Wuhan Heyan Biotechnology Co., Ltd. or Hefei PreceDo Biotechnology Co., Ltd.
(§2) Experimental materials: ALK Active, ALK(L1196M) Active, ALK(G1202R) Active, and ALK(G1202R/L1196M) Active were purchased from Carna; SRC Substrate was purchased from SignalChem; IGF1R tide was purchased from SignalChem; ADP-Glo Kinase Assay was purchased from Promega; Kinase assay buffer III was purchased from SignalChem; and Nivo multimode plate reader (PerkinElmer).
(§3) Each concentration of the compounds was further diluted 20-fold using 1X kinase buffer to prepare compound working solutions containing 5% DMSO. 1 µL of each concentration gradient working solution was added to a microplate, with duplicate wells set for each concentration. 2 µL of ALK enzyme (15 ng per well) and 2 µL of a mixture of substrate and ATP (25 µM ATP, 0.5 µg/µL SRC Substrate) were added to the microplate. […] The reaction system was placed at 25°C for 1 hour. After the reaction, 5 µL of ADP-Glo reagent was added to each well and reacted at 25°C for another 40 minutes. After the reaction, 10 µL of kinase detection reagent was added to each well and reacted at 25°C for 30 minutes. Chemiluminescence was then measured using the PerkinElmer Nivo multimode plate reader with an integration time of 0.5 seconds.
ALK (G1202R) kinase inhibition assay method: The preparation method for the working solution of the test compound was the same as for the ALK kinase. […] The subsequent steps were the same as for ALK kinase.
(§4) The IC50 value could then be derived by performing a curve fit using a four-parameter logistic model (obtained using the "log(inhibitor) vs. response -- Variable slope" mode in GraphPad Prism).

[2] = biological target: T2, ALK(G1202R/L1196M) (Homo sapiens, UniProt Q9UM73, G1202R/L1196M); assay: as above; assay type: biochemical; conditions: final ATP 50 µM, read-out: Kinase half maximal inhibitory concentration IC50 ALK^G1202R/L1196M
T2 construct: purchased Carna
Description: as §1, §2, §3
ALK (G1202R/L1196M) kinase inhibition assay method: The preparation method for the working solution of the test compound was the same as for the ALK kinase. […] The subsequent steps were the same as for ALK kinase.
as §4

[3] = biological target: T3, TRKB (Homo sapiens, UniProt Q16620); assay: as above; assay type: biochemical; conditions: read-out: Kinase half maximal inhibitory concentration IC50 TRKB
T3 construct: purchased Carna
Description: as §1, §2, §3
TRKB kinase inhibition assay method: The preparation method for the working solution of the test compound was the same as for the ALK kinase. 2 µL of TRKB (0.5 ng per well) and 4 µL of a mixture of substrate and ATP (5 µM ATP, 0.5 µM SRC Substrate) were added to the microplate. […] The subsequent steps were the same as for ALK kinase.
as §4

[4] = biological target: T2, ALK(G1202R/L1196M); assay: In vitro kinase inhibitory activity assay, Experimental method 2 (ADP-Glo); assay type: biochemical
Description: as §1
(§5) Experimental materials: ALK (G1202R/L1196M) Active and TRKB were purchased from Carna; IGF1 was purchased from GenScript; PolyE4Y1 was purchased from SIGMA; ADP-Glo™ Reagent was purchased from Promega; ATP was purchased from Promega; Kinase Detection Reagent was purchased from Promega; microplate reader ( PerkinElmer).
Reaction system: ALK(G1202R/L1196M) reaction concentration 8.63 nM, ATP concentration 5.0 µM, substrate IGF1 concentration 0.2 µg/µL. ALK(G1202R/L1196M) kinase buffer was 40 mM Tris-HCl (pH 7.5) + 20 mM magnesium chloride + 0.1 mg/mL BSA + 50 µM DTT.
(§6) ALK(G1202R/L1196M) and TRKB detection method: 2 µL of kinase and 1 µL of compound were added to a 384-well plate; 2 µL of substrate/ATP mixture was added and incubated at room temperature in the dark for 60 minutes; 5 µL of ADP-Glo™ reagent was added and incubated at room temperature for 40 minutes; 10 µL of kinase detection reagent was added and incubated at room temperature for 30 minutes; the plate was read on a microplate reader, and luminescence was recorded (integration time set to 0.5 seconds).
as §4

[5] = biological target: T3, TRKB; assay: as above; assay type: biochemical
Description: as §1, §5
TRKB reaction concentration 4.47 nM, ATP concentration 5.0 µM, substrate PolyE4Y1 concentration 0.2 µg/µL. TRKB kinase buffer was 40 mM Tris-HCl (pH 7.5) + 20 mM magnesium chloride + 2.5 mM manganese chloride + 0.1mg/mL BSA+ 50 µM DTT.
as §6, §4

[6] = tested on: Ba/F3-EML4-ALK-G1202R/L1196M; assay: Anti-proliferative activity test on Ba/F3 cell lines (CellTiter-Glo); assay type: cell-based; conditions: Ba/F3 EML4-ALK-G1202R-L1196M; 72 hours; read-out: Half maximal inhibitory concentration IC50 for cells Ba/F3-EML4-ALK-G1202R/L1196 M
Description: (§7) • (1) Cell culture: The cell lines were cultured in an incubator at 37°C with 5% CO2. Regular passaging was performed, and cells in the logarithmic growth phase were selected for plating; • (2) Preparation of compound storage plate: The test compounds were prepared into a 10 mM solution with DMSO (Stock Con.); The compounds were then prepared into a 1 mM solution with DMSO (Work Con.); 1 µL of the stock solution was mixed with 9 µL of DMSO to prepare a 10 µL work solution. • (3) Preparation of 1000× compound storage plate (tube): The compounds were 3-fold serially diluted from […] to the lowest concentration, for a total of 8 concentrations; • (4) Preparation of 20× compound working solution: 98 µL of cell culture medium was added to a flat-bottomed 96-well transparent drug plate. From the 1000× compound storage plate, 2 µL of the compound was pipetted into the cell culture medium in the 96-well transparent drug plate. In the solvent control, 2 µL of DMSO was added. After the compound or DMSO was added, the mixture was homogenized using a pipette. • (5) Cells were stained with trypan blue and viable cells were counted to ensure a cell viability of 90% or more. The cell concentration was adjusted to an appropriate concentration; • (6) 95 µL of cell suspension (2000 cells/well) was added to each well of the compound assay cell plate, and cell-free culture medium containing 0.1% DMSO was added to the Min control wells; • (7) Administration in the compound assay cell plate: 5 µL of 20× compound working solution was added to the cell culture plate, 5 µL of DMSO-cell culture medium mixture was added to the Max control wells, and the final concentration of DMSO was 0.1%; • (8) The culture plate was then incubated in an incubator at 37°C with 5% CO2 for 72 hours; • (9) The following operations were conducted in accordance with the instructions of the Promega CellTiter-Glo Luminescent Cell Viability Assay Kit (Promega-G7573): CellTiter-Glo buffer was thawed and brought to room temperature; CellTiter-Glo substrate was brought to room temperature; CellTiter-Glo buffer was added to a bottle of CellTiter-Glo substrate to dissolve the substrate, thereby preparing CellTiter-Glo working solution; The mixture was slowly vortexed and shaken to be fully dissolved; The cell culture plate was removed and allowed to equilibrate to room temperature for 10 minutes; 50 µL (equal to half the volume of cell culture medium in each well) of CellTiter-Glo working solution was added to each well; The culture plate was shaken on an orbital shaker for 2 minutes to induce cell lysis; The plate was then left at room temperature for 10 minutes to stabilize the luminescent signal; The luminescent signal was detected using a SpectraMax Paradigm plate reader; Cell viability assay was conducted using CellTiter-Glo luminescence method.
(§8) Data analysis: The corresponding […] value (RLU) for each well was obtained from SpectraMax Paradigm readings. […] The inhibition rates corresponding to compounds at different concentrations were calculated in Excel, and the inhibition rate curves were plotted using GraphPad Prism software to calculate relevant parameters, including the maximum and minimum inhibition rates of the cells and the IC50 value.

[7] = tested on: Ba/F3-TEL-TRKB; assay: as above; assay type: cell-based; conditions: Mus musculus, BaF3; 72 hours; read-out: Half maximal inhibitory concentration IC50 for cells Ba/F3-TEL-TRKB
Description: as §7, §8

[8] = Experimental method 2, ATP 5.0 µM, substrate IGF1, read-out: Kinase half maximal inhibitory concentration IC50 ALK^G1202R/L1196M
[9] = Experimental method 2, ATP 5.0 µM, substrate PolyE4Y1, read-out: Kinase half maximal inhibitory concentration IC50 TRKB

T2 sequence (Q9UM73 19-1620 L1196M/G1202R): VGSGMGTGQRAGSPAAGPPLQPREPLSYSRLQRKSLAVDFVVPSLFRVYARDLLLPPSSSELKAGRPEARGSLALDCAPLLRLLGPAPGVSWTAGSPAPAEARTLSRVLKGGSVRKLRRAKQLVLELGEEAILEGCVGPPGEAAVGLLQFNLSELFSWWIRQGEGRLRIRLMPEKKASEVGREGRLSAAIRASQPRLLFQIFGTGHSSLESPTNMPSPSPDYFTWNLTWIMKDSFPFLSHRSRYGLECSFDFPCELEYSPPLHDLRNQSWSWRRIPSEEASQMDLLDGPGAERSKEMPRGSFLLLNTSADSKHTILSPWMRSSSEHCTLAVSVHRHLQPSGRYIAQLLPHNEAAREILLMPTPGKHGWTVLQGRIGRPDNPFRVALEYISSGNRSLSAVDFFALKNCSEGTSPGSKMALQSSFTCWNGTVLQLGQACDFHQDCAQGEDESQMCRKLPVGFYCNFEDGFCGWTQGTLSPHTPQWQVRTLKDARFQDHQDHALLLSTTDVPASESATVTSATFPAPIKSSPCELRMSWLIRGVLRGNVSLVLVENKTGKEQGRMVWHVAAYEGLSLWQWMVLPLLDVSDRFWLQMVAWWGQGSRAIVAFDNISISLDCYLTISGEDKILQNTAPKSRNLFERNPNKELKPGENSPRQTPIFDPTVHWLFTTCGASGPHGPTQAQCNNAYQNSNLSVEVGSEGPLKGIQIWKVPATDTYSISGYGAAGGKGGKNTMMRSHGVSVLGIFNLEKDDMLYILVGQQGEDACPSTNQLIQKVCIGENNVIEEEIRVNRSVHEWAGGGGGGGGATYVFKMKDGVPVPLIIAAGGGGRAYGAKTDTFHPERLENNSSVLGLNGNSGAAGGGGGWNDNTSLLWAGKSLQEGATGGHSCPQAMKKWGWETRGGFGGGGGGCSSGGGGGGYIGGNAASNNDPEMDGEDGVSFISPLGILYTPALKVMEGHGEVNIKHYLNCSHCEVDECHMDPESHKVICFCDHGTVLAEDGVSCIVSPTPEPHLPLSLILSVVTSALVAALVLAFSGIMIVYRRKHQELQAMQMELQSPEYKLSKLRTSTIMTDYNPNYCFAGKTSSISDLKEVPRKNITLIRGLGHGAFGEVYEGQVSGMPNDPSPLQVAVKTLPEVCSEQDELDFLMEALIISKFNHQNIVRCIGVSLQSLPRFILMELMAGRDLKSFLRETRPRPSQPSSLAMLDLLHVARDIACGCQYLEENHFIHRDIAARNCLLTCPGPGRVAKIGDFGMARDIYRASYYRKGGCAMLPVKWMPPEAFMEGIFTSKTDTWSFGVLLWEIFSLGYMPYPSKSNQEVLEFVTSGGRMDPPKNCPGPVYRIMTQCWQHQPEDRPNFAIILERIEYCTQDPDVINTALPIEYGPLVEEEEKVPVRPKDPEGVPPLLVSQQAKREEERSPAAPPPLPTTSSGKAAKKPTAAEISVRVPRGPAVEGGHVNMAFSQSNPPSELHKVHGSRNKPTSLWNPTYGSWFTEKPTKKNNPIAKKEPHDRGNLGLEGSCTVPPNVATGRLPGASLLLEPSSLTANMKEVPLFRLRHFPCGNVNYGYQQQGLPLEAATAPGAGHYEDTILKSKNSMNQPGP
T3 sequence (Q16620 32-822): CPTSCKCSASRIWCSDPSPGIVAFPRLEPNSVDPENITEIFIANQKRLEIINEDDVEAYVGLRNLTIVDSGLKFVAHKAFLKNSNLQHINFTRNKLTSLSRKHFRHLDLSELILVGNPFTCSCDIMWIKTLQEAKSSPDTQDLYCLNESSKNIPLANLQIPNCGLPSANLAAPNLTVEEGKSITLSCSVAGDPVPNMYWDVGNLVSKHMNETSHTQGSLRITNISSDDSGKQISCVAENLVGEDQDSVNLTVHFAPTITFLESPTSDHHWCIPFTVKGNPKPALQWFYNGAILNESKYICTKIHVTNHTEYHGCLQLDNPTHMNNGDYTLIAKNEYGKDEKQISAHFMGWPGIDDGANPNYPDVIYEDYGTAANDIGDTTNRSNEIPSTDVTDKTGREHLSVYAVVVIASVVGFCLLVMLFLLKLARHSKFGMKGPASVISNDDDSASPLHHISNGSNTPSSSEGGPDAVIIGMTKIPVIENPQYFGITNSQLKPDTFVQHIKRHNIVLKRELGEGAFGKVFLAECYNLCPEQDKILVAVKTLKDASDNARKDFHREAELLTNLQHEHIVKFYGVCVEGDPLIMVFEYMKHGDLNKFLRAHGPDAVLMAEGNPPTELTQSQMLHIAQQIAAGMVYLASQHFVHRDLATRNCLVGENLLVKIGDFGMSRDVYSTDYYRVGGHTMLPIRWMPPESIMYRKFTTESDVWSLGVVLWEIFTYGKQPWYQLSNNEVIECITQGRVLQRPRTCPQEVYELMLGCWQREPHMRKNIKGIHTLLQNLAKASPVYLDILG
T1 sequence (Q9UM73 19-1620 G1202R): as the sequence (Q9UM73 19-1620 L1196M/G1202R) above, with M1178L counted along it

CCON=C1NC(C)(C)COc2ccc(F)cc2CN2c3nc4c1cnn4cc3OC[C@H]2C(F)F [Compound 002]
IC50 [1]: 27.8 nM
IC50 [2]: 14.6 nM

COCCON=C1NC(C)(C)COc2ccc(F)cc2CN2c3nc4c1cnn4cc3OC[C@H]2C(F)F [Compound 003]
IC50 [1]: 12.2 nM
IC50 [2]: 11.3 nM

CC1(C)COc2ncc(F)cc2CN2c3nc4c(cnn4cc3OC[C@H]2C(F)F)C(=S)N1 [Compound 004]
IC50 [2]: 1.3 nM
IC50 [3]: 2.4 nM

Cc1nn2cc3c4nc2c1C(=O)NC(C)(C)COc1ccc(F)cc1CN4[C@H](C(F)F)CO3 [Compound 006]
IC50 [4, 8]: 0.6 nM
IC50 [5, 9]: 1.2 nM

CC1(C)COc2ccc(F)cc2CN2c3nc4c(cc3OC[C@H]2C(F)F)ncn4C(=O)N1 [Compound 007]
IC50 [4]: 1 nM
IC50 [5]: 2.6 nM

CC1(C)COc2ccc(F)cc2CN2c3nc4c(cc3OC[C@H]2C(F)F)ncn4C(=S)N1 [Compound 008]
IC50 [4, 8]: 1.7 nM
IC50 [5, 9]: 7.8 nM

CC1(C)COc2ccc(F)cc2CN2c3nc4c(c(Br)nn4cc3OC[C@H]2C(F)F)C(=O)N1 [Compound 009]
IC50 [4, 8]: 0.8 nM
IC50 [6]: 7.3 nM
IC50 [7]: 7.8 nM
IC50 [5, 9]: 2 nM

CC1(C)COc2ccc(F)cc2CN2c3nc4c(c(C#N)nn4cc3OC[C@H]2C(F)F)C(=O)N1 [Compound 010]
IC50 [4, 8]: 1.5 nM
IC50 [5, 9]: 4.4 nM
